Experimental data published in patent US20250145645A1, “BORON CARRYING AGENT, PREPARATION METHOD AND PHARMACEUTICAL FORMULATION THEREOF” (Peking University, priority 2021, published 2025).

How the values were obtained:
[1] = tested on: rat cerebral 9L gliosarcoma; details: cited from earlier work
HS683 cerebral glioma = assay: Tissue uptake in mouse cerebral glioma model, ICP-MS; type: in vivo, BALB/c mice; details: 500 mg/kg via tail vein, two hours after administration, FIG. 4
Protocol: Healthy BALB/c mice with an average weight of approximately 21 g were selected and inoculated with HS683 cerebral glioma to establish a mouse cerebral glioma model. After 21 days, the mouse cerebral glioma model was generated, and 500 mg/kg of BPA, temozolomide or compound I solution was injected via the tail vein of the mice. After administration, the major tissues and organs (heart, liver, spleen, lungs, kidneys and tumor sites) of the mice were removed at selected time periods (1 hour, 2 hours, and 4 hours). After washing and weighing, the tissues and organs were digested with concentrated nitric acid. The digested tissue sample was diluted and the concentration in the sample was determined by ICP-MS.

[2] = tested on: cerebral glioma U87MG cells; assay: Boron uptake in cells, B content by ICP-AES; type: cell-based; details: 12 hours, FIG. 3
Protocol: (§1) Compound I was formulated into aqueous solutions of 0.1 mg/g. 0.2 mg/g. 0.4 mg/g. 0.6 mg/g and 0.8 mg/g, added to U87MG, U251, A549 and A375 cell lines cultured in 25T petri dishes, respectively, and incubated in a thermostatic incubator for 12 hours. Subsequently, the cells and culture medium were separated, and the number of cells was determined. After the cells were digested with concentrated nitric acid, the B content in the cells was determined by ICP-AES.
(§2) The […] was 249.772 nm.
(§3) Meanwhile, the BPA was formulated into aqueous solutions of 0.1 mg/g, 0.2 mg/g, 0.4 mg/g, 0.6 mg/g, and 0.8 mg/g, added into U87MG, U251, A375 and HS683 cell lines cultured in 25T petri dishes, respectively, and cultured in a thermostatic incubator for 12 hours. Subsequently, the cells and culture medium were separated, and the number of cells was determined. After the cells were digested with concentrated nitric acid, the B content in the cells was determined by ICP-AES and plotted as shown in FIG. 2.

glioma cell line U251 = assay: Boron uptake in cells, B content by ICP-AES; type: cell-based
Protocol: as §1, §2, §3

[3] = tested on: U87MG, U251, A549 and A375 cell lines; assay: Boron uptake in tumor cell lines, B content in cells by ICP-AES; type: cell-based; details: 0.1-0.8 mg/g aqueous solutions, 12 hours incubation, FIG. 1
Protocol: as §1, §2

[4] = tested on: cerebral glioma HS683 cells; assay: Boron uptake in cells, B content by ICP-AES; type: cell-based; details: 12 hours, FIG. 3

| uptake in the mouse cerebral glioma site compared with BPA (HS683 cerebral glioma) | SMILES | uptake by other types of tumor cells [1] | cellular uptake compared with BPA [2] | cellular uptake compared with BPA (glioma cell line U251; U251 cells, 12 hours, FIG. 3) | uptake, ranking among cell lines (glioma cell line U251; U251 versus U87MG, A549, A375, within 12 hours) | boron concentration in the cells (B content in every 10^6 cells) [3] | cellular uptake compared with BPA [4] |
| --- | --- | --- | --- | --- | --- | --- | --- |
|  | N[C@@H](Cc1ccc(B(O)O)cc1)C(=O)O [BPA, ^10B-p-Dicarboxylboronic acid phenylalanine] | taken up |  |  |  |  |  |
| higher than that of BPA | Cn1nnc2c(C(=O)OCc3ccc([B-]45OCC[N+]4(C)CCO5)cc3)ncn2c1=O (stereo not shown) [Compound I] |  | significantly higher than BPA | significantly higher than BPA | best uptake | positively correlated with the concentration of the added product | significantly higher than BPA |
